Legend:
[1] = test system: recombinant human anti-SARS-CoV antibody 03-018; format: binding; design: Binding of antibody 03-018 to linear peptides of the N protein of SARS-CoV Urbani / Binding of antibody 03-018 to looped/cyclic peptides of the N protein of SARS-CoV Urbani: unit not given here
[2] = test system: antibodies in sera from SARS patients (sera 1a, 1b, 2, 6, 37, 62, London, SARS-yellow, SARS-green); format: binding, human; design: Binding of serum 6 to linear peptides of protein X1 of SARS-CoV Urbani / Binding of serum 37 to linear peptides of protein X1 of SARS-CoV Urbani / Binding of serum 6 to looped/cyclic peptide (PEPSCAN-ELISA) / Binding of serum 37 to looped/cyclic peptide (PEPSCAN-ELISA) / Binding of serum 37 to looped/cyclic peptides of protein X1 of SARS-CoV Urbani / Binding of serum 6 to linear peptides of protein X2 / Binding of serum 37 to linear peptides of protein X2 / Binding of serum 37 to looped/cyclic peptides of protein X2 of SARS-CoV Urbani / Binding of serum 6 to linear peptides of protein M of SARS-CoV Urbani / Binding of serum 37 to linear peptides of protein M of SARS-CoV Urbani / Binding of serum 6 to looped/cyclic peptides of protein M of SARS-CoV Urbani / Binding of serum 37 to looped/cyclic peptides of protein M of SARS-CoV Urbani / Binding of serum 6 to linear peptides of protein X3 of SARS-CoV Urbani / Binding of serum 37 to linear peptides of protein X3 of SARS-CoV Urbani / Binding of serum 37 to looped/cyclic peptides of protein X3 of SARS-CoV Urbani / Binding of serum 6 to linear peptides of protein X4 of SARS-CoV Urbani / Binding of serum 37 to linear peptides of protein X4 of SARS-CoV Urbani / Binding of serum 37 to looped/cyclic peptides of protein X4 of SARS-CoV Urbani / Binding of serum 6 to linear peptides of protein X5 of SARS-CoV Urbani / Binding of serum 37 to linear peptides of protein X5 of SARS-CoV Urbani / Binding of serum 37 to looped/cyclic peptides of protein X5 of SARS-CoV Urbani / Binding of serum 6 to linear peptides of protein N of SARS-CoV Urbani / Binding of serum 37 to linear peptides of protein N of SARS-CoV Urbani / Binding of serum 6 to linear peptide (PEPSCAN-ELISA) / Binding of serum 1a to looped/cyclic peptides of protein N of SARS-CoV Urbani / Binding of serum 1b to looped/cyclic peptides of protein N of SARS-CoV Urbani / Binding of serum 2 to looped/cyclic peptides of protein N of SARS-CoV Urbani / Binding of serum 6 to looped/cyclic peptides of protein N of SARS-CoV Urbani / Binding of serum 37 to looped/cyclic peptides of protein N of SARS-CoV Urbani / Binding of serum 62 to looped/cyclic peptides of protein N of SARS-CoV Urbani / Binding of serum London to looped/cyclic peptides of protein N of SARS-CoV Urbani / Binding of serum SARS-green to looped/cyclic peptides of protein N of SARS-CoV Urbani: unit not given here
[3] = test system: control sera (pooled serum of ten healthy LUMC hospital workers; commercial negative donor pooled serum from the Dutch bloodbank); format: binding, human; design: Binding of Control serum LUMC to linear peptides / Binding of Control serum Blood-bank to linear peptides / Binding of Control serum LUMC to looped peptides / Binding of Control Serum Blood-Bank to Looped peptides / Binding of Control serum LUMC to linear peptides of the protein M of SARS-CoV Urbani / Binding of Control serum Blood-bank to linear peptides of the protein M of SARS-CoV Urbani / Binding of Control serum LUMC to looped peptides of the protein M of SARS-CoV Urbani / Binding of Control Serum Blood-Bank to Looped peptides of the protein M of SARS-CoV Urbani: unit not given here
[4] = test system: rabbit serum obtained by immunizing a rabbit with the SARS-CoV strain Frankfurt 1; format: binding; design: Binding of a rabbit serum to linear peptides / Binding of a rabbit serum to looped peptides / Rabbit serum linear peptides / Rabbit serum looped peptides / Binding of a rabbit serum to linear peptides of protein N of SARS-CoV Urbani (Rabbit serum linear peptides) / Binding of a rabbit serum to looped/cyclic peptides of protein N of SARS-CoV Urbani (Rabbit serum looped peptides): unit not given here

Sequence	Binding of antibody 03-018 to linear peptides of the N protein of SARS-CoV Urbani [1]	Binding of antibody 03-018 to looped/cyclic peptides of the N protein of SARS-CoV Urbani [1]	Binding of serum 1a to linear peptides of protein N of SARS-CoV Urbani [2]	Binding of serum 1a to looped/cyclic peptides of protein N of SARS-CoV Urbani [2]	Binding of serum 1b to linear peptides of protein N of SARS-CoV Urbani [2]	Binding of serum 1b to looped/cyclic peptides of protein N of SARS-CoV Urbani [2]	Binding of serum 2 to linear peptides of protein N of SARS-CoV Urbani [2]	Binding of serum 2 to looped/cyclic peptides of protein N of SARS-CoV Urbani [2]	Binding of serum 6 to linear peptides of protein N of SARS-CoV Urbani [2]	Binding of serum 6 to looped/cyclic peptides of protein N of SARS-CoV Urbani [2]	Binding of serum 37 to linear peptides of protein N of SARS-CoV Urbani [2]	Binding of serum 37 to looped/cyclic peptides of protein N of SARS-CoV Urbani [2]	Binding of serum 62 to linear peptides of protein N of SARS-CoV Urbani [2]	Binding of serum 62 to looped/cyclic peptides of protein N of SARS-CoV Urbani [2]	Binding of serum London to linear peptides of protein N of SARS-CoV Urbani [2]	Binding of serum London to looped/cyclic peptides of protein N of SARS-CoV Urbani [2]	Binding of serum SARS-green to linear peptides of protein N of SARS-CoV Urbani [2]	Binding of serum SARS-green to looped/cyclic peptides of protein N of SARS-CoV Urbani [2]	Binding of serum SARS-yellow to linear peptides of protein N of SARS-CoV Urbani [2]	Binding of serum SARS-yellow to looped/cyclic peptides of protein N of SARS-CoV Urbani [2]	other results
DAYKTFPPTEPKKDK	0.1	0.2	0.3	0.2	0.2	0.1	0.3	0.2	0.3	0.1	0.8	0.3	1.1	0.2	0.6	0.2	0.4	0.0	0.7	0.1	Control Serum Blood-Bank Looped peptides [3]: 0.2; Control serum Blood-bank linear peptides [3]: 0.8; Control serum LUMC linear peptides [3]: 0.6; Control serum LUMC looped peptides [3]: 0.2; Binding of a rabbit serum to linear peptides of protein N of SARS-CoV Urbani (Rabbit serum linear peptides) [4]: 0.1; Binding of a rabbit serum to looped/cyclic peptides of protein N of SARS-CoV Urbani (Rabbit serum looped peptides) [4]: 0.1
DDQIGYYRRATRRVR	0.1	0.3	0.3	0.4	0.1	0.2	0.3	0.5	0.3	0.4	0.7	0.9	0.9	0.7	0.7	0.5	0.6	0.4	0.6	0.5	Binding of Control Serum Blood-Bank to Looped peptides [3]: 0.8; Binding of Control serum Blood-bank to linear peptides [3]: 1.0; Binding of Control serum LUMC to linear peptides [3]: 1.0; Binding of Control serum LUMC to looped peptides [3]: 0.8; Recognition of the peptide by the rabbit serum [4]: recognized
DFSRQLQNSMSGASA	0.1	0.2	0.2	0.3	0.1	0.1	0.2	0.4	0.2	0.2	0.7	0.4	0.6	0.2	0.5	0.3	0.3	0.4	0.5	0.2	Control Serum Blood-Bank Looped peptides [3]: 0.5; Control serum Blood-bank linear peptides [3]: 0.6; Control serum LUMC linear peptides [3]: 0.6; Control serum LUMC looped peptides [3]: 0.4; Binding of a rabbit serum to linear peptides of protein N of SARS-CoV Urbani (Rabbit serum linear peptides) [4]: 0.5; Binding of a rabbit serum to looped/cyclic peptides of protein N of SARS-CoV Urbani (Rabbit serum looped peptides) [4]: 0.6
